{"source": "ChEMBL document CHEMBL3616465", "about": "“Neutrophil elastase inhibitors for the treatment of (cardio)pulmonary diseases: Into clinical testing with pre-adaptive pharmacophores” (Bioorg Med Chem Lett, 2015)", "key": {"Neutrophil elastase [1]": {"biological_target": "T1, Neutrophil elastase (Homo sapiens, UniProt P08246)", "T1 sequence (P08246 whole entry)": "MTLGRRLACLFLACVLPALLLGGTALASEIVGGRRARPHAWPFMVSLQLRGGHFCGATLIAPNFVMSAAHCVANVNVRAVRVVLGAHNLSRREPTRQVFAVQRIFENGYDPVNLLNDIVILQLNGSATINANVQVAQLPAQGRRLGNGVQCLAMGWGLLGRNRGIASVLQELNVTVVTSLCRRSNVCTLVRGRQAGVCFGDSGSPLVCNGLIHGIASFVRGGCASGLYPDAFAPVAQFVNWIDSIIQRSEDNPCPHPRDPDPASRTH", "experiment": "Inhibition of neutrophil elastase in human plasma using MeOSuc-Ala-Ala-Pro-Val-AMC as substrate by fluorescence assay"}, "Neutrophil elastase [2]": {"biological_target": "T1, Neutrophil elastase", "experiment": "Inhibition of human neutrophil elastase using MeO-Succ-Ala-Ala-Pro-Val-AMC as substrate after 30 mins by fluorescence assay"}, "[3]": {"experiment": "Half life in human hepatocytes at 1 uM by LC/MS-MS analysis"}, "Pancreatic elastase": {"biological_target": "Pancreatic elastase (Sus scrofa, UniProt P08419+P00772)", "experiment": "Inhibition of porcine pancreatic elastase using as succinyl-Ala-Ala-Ala-p-nitroanilide as substrate measured every 1 min by spectrophotometric analysis", "assay_type": "protein assay"}, "[4]": {"experiment": "Selectivity ratio of IC50 for mouse neutrophil elastase to IC50 for human neutrophil elastase"}, "Homo sapiens [5]": {"species_on_record": "Homo sapiens", "experiment": "Selectivity ratio of IC50 for human PR3 to IC50 for human neutrophil elastase"}, "[6]": {"experiment": "Selectivity ratio of IC50 for porcine pancreatic elastase to IC50 for human neutrophil elastase"}, "Homo sapiens [7]": {"tested_on": "Homo sapiens", "experiment": "Inhibition of sputum neutrophil count in cystic fibrosis patient at 60 mg/kg, po bid measured at 24 hrs relative to control", "assay_type": "functional"}, "Neutrophil elastase [8]": {"biological_target": "T1, Neutrophil elastase", "experiment": "Inhibition of human neutrophil elastase using MeO-Suc-Ala-Ala-Pro-Val 7-amido-4-methylcoumarin as substrate preincubated for 15 mins followed by substrate addition measured after 90 mins"}, "Homo sapiens [9]": {"species_on_record": "Homo sapiens", "experiment": "Selectivity ratio of IC50 for human CatG to IC50 for human neutrophil elastase"}, "[10]": {"experiment": "Selectivity ratio of IC50 for rat neutrophil elastase to IC50 for human neutrophil elastase"}, "Homo sapiens [11]": {"species_on_record": "Homo sapiens", "experiment": "Selectivity ratio of IC50 for human chymotrypsin to IC50 for human neutrophil elastase"}, "Homo sapiens [12]": {"species_on_record": "Homo sapiens", "experiment": "Selectivity ratio of IC50 for human trypsin to IC50 for human neutrophil elastase"}, "Neutrophil elastase [13]": {"biological_target": "T1, Neutrophil elastase", "experiment": "Inhibition of human neutrophil elastase"}, "Neutrophil elastase [14]": {"biological_target": "T1, Neutrophil elastase", "description": "(§1) Inhibition of neutrophil elastase in human whole blood using MeO-Succ-Ala-Ala-Pro-Val-pNA as substrate after 30 mins by colorimetric analysis"}, "[15]": {"biological_target": "T2, Neutrophil elastase (Homo sapiens) (UniProt P08246)", "T2 sequence (whole entry)": "T1 sequence (P08246 whole entry)", "settings": "Blood", "description": "as §1"}, "[16]": {"experiment": "Half life in po dosed human administered as qd", "assay_type": "ADME, organism-based", "settings": "in vivo"}}}
{"smiles": "CNC(=O)N1C(=O)N(c2cccc(C(F)(F)F)c2)C2=C(C(=O)CC2)[C@H]1c1ccc(C#N)cc1S(C)(=O)=O", "values": [{"measurement": "IC50", "setting": "Neutrophil elastase [1]", "value": "< 1", "unit": "nM"}, {"measurement": "IC50", "setting": "Neutrophil elastase [2]", "value": "< 1", "unit": "nM"}, {"measurement": "half-life at 1 µM", "setting": "[3]", "value": "> 2.17", "unit": "h"}]}
{"smiles": "CC(C)(C)C(=O)Oc1ccc(S(=O)(=O)Nc2ccccc2C(=O)NCC(=O)[O-])cc1.[Na+]", "values": [{"measurement": "IC50", "setting": "Pancreatic elastase", "value": 5600, "unit": "nM"}]}
{"smiles": "Cc1c(-c2ccnn2C)cc(C(=O)NCc2ccc(S(C)(=O)=O)cn2)c(=O)n1-c1cccc(C(F)(F)F)c1", "values": [{"measurement": "Ratio IC50", "setting": "[4]", "value": 24}, {"measurement": "Ratio IC50", "setting": "Homo sapiens [5]", "value": "> 1900"}, {"measurement": "Ratio IC50", "setting": "[6]", "value": "> 2000"}, {"measurement": "inhibition in vivo at 60 mg/kg", "setting": "Homo sapiens [7]", "value": 50, "unit": "%"}, {"measurement": "Ki", "setting": "Neutrophil elastase [8]", "value": 12, "unit": "nM"}, {"measurement": "Ratio IC50", "setting": "Homo sapiens [9]", "value": "> 680"}, {"measurement": "Ratio IC50", "setting": "[10]", "value": 18}, {"measurement": "Ratio IC50", "setting": "Homo sapiens [11]", "value": "> 2000"}, {"measurement": "Ratio IC50", "setting": "Homo sapiens [12]", "value": "> 2000"}]}
{"smiles": "CS(=O)(=O)c1cc(C#N)ccc1[C@@H]1C2=C(CCC2=O)N(c2cccc(C(F)(F)F)c2)C(=O)N1CC#N", "values": [{"measurement": "IC50", "setting": "Neutrophil elastase [1]", "value": "< 1", "unit": "nM"}, {"measurement": "IC50", "setting": "Neutrophil elastase [2]", "value": "< 1", "unit": "nM"}, {"measurement": "half-life at 1 µM", "setting": "[3]", "value": "> 2.17", "unit": "h"}]}
{"smiles": "Cc1c(-c2ccnn2-c2ccc(C#N)cc2)cn2nc(NC(=O)CN(C)C)nc2c1-c1cccc(C(F)(F)F)c1", "values": [{"measurement": "IC50", "setting": "Neutrophil elastase [13]", "value": "< 20", "unit": "nM"}]}
{"smiles": "CS(=O)(=O)c1cc(C#N)ccc1[C@@H]1C2=C(CCC2=O)N(c2cccc(C(F)F)c2)C(=O)N1C(=O)NC1CC1", "values": [{"measurement": "half-life at 1 µM", "setting": "[3]", "value": "> 2.17", "unit": "h"}]}
{"smiles": "CCc1cc(OC)cc2nc(-c3cccnc3N3CC[C@H](N(C)C)C3)oc(=O)c12", "values": [{"measurement": "IC50", "setting": "Neutrophil elastase [14]", "value": 7, "unit": "nM"}]}
{"smiles": "CC(C)C[C@H]1C(=O)N(COC(=O)Cc2ccccc2Nc2c(Cl)cccc2Cl)S(=O)(=O)N1C", "values": [{"measurement": "K", "setting": "[15]", "value": 9.8, "unit": "×10⁵ /M/s"}]}
{"smiles": "N#Cc1ccc([C@H]2NC(=O)N(c3cccc(C(F)(F)F)c3)C3=C2C(=O)CC3)cc1", "values": [{"measurement": "half-life at 1 µM", "setting": "[3]", "value": "> 2.17", "unit": "h"}]}
{"smiles": "CC1=C(C#N)[C@@H](c2ccc(C#N)cc2S(C)(=O)=O)N(C)C(=O)N1c1cccc(C(F)(F)F)c1", "values": [{"measurement": "half-life", "setting": "[16]", "value": 120, "unit": "h"}]}
{"smiles": "COC(=O)C1=C(C)N(c2cccc(C(F)(F)F)c2)c2n[nH]c(=O)n2[C@@H]1c1ccc(C#N)cc1CCCN(C)C", "values": [{"measurement": "IC50", "setting": "Neutrophil elastase [2]", "value": "< 20", "unit": "nM"}]}
